The test system of one experiment is Laodelphax striatella. Description: Insecticidal test on Laodelphax striatella (rice seedling dip). It counts as in vivo. The following applies: Laodelphax striatellus, 192 h, rice seedlings dipped 30 seconds, 3rd-instar larvae, 8 days after inoculation, read-out: insecticidal effect (corrected mortality rate), activity level. The text has this: Insecticidal Test on Laodelphax striatella
The condensed heterocyclic compounds represented by the general formula (1) of the present invention or salts thereof were separately dispersed in water and diluted to 500 ppm, and rice plant seedlings (variety: Nihonbare) were dipped in the agrochemical dispersions for 30 seconds. After air-dried, each seedling was put into a separate glass test tube and inoculated with ten 3rd-instar larvae of Laodelphax striatella, and then the glass test tubes were capped with cotton plugs. At 8 days after the inoculation, the numbers of surviving larvae and dead larvae were counted, the corrected mortality rate was calculated according to the formula shown below, and the insecticidal effect was evaluated according to the criteria of Test Example 1. Corrected mortality rate (%)=100×(Survival rate in a non-treatment plot−Survival rate in a treatment plot)/Survival rate in a non-treatment plot [Math. 2]

Another experiment deals with Plutella xylostella. Description: Insecticidal test on Plutella xylostella (dip of Chinese cabbage seedlings with laid eggs). It counts as in vivo. Conditions: 144 h, seedlings with laid eggs dipped about 30 seconds, 25° C., 6 days after dip treatment, read-out: insecticidal effect (corrected mortality rate), activity level. From the text: Insecticidal Test on Plutella xylostella
Adults of Plutella xylostella were released onto Chinese cabbage seedlings and allowed to lay eggs thereon. At 2 days after the release of the adults, the Chinese cabbage seedlings with laid eggs were dipped for about 30 seconds in agrochemical dispersions diluted to 500 ppm, each of which contained a different condensed heterocyclic compound represented by the general formula (1) of the present invention as an active ingredient. After air-dried, the seedlings were kept in a thermostatic chamber at 25° C. At 6 days after the dip treatment, the number of hatched larvae per plot was counted, the mortality rate was calculated according to the formula shown below, and the insecticidal effect was evaluated according to the criteria of Test Example 1. This test was conducted in triplicate using 10 adults of Plutella xylostella per plot. Corrected mortality rate (%)=100×(Number of hatched larvae in a non-treatment plot−Number of hatched larvae in a treatment plot)/Number of hatched larvae in a non-treatment plot [Math. 3]

Structures are written as SMILES.

As a reminder, the mortality is the share of the test organisms that died.

As for `CCS(=O)(=O)c1cc(C(F)(F)F)cnc1C1=Nc2cc(C(F)(F)F)cnc2C1(F)F` [Compound 1-10, 2-(3-Ethylsulfonyl-5-trifluoromethylpyridin-2-yl)-3,3-difluoro-6-trifluoromethyl-3H-pyrrolo[3,2-b]pyridine], the mortality at 500 ppm in the experiment on Laodelphax striatella and with Plutella xylostella was 100% throughout.

For `CCS(=O)(=O)c1cc(-c2ccc(F)cc2)cnc1C1=Nc2cc(C(F)(F)F)cnc2C1(F)F` [Compound 1-19, 2-(3-Ethylsulfonyl-5-(4-fluorophenyl)pyridin-2-yl)-3,3-difluoro-6-trifluoromethyl-3H-pyrrolo[3,2-b]pyridine], the mortality at 500 ppm in the experiment on Laodelphax striatella and with Plutella xylostella was 100% in each case.

As for `CCS(=O)(=O)c1cc(-c2cccc(C(F)(F)F)c2)cnc1C1=Nc2cc(C(F)(F)F)cnc2C1(F)F` [Compound 1-20, 2-(3-Ethylsulfonyl-5-(3-trifluoromethylphenyl)pyridin-2-yl)-3,3-difluoro-6-trifluoromethyl-3H-pyrrolo[3,2-b]pyridine], the mortality at 500 ppm with Laodelphax striatella and with Plutella xylostella was 100% throughout.

In the case of `CC[S+]([O-])c1cc(C(F)(F)F)cnc1C1=Nc2cc(C(F)(F)F)cnc2C1(F)F` (stereo not shown) [Compound 1-9, 2-(3-Ethylsulfinyl-5-trifluoromethylpyridin-2-yl)-3,3-difluoro-6-trifluoromethyl-3H-pyrrolo[3,2-b]pyridine], the mortality at 500 ppm in the experiment on Laodelphax striatella and in the experiment with Plutella xylostella was 100% each time.

As to `CCS(=O)(=O)c1cc(C(F)(F)F)ccc1C1=Nc2cc(C(F)(F)F)cnc2C1(F)F` [Compound 1-1], the mortality at 500 ppm in the experiment with Laodelphax striatella and with Plutella xylostella was 100% each time.

The record behind these values is patent US10292395B2, “3H-pyrrolopyridine compound, N-oxide thereof or salt thereof, agricultural and horticultural insecticide comprising the compound and method for using the same” (Nihon Nohyaku Co., Ltd., priority 2015, dated 2019).
